Measured values from ChEMBL document CHEMBL1139948, “Design and synthesis of novel hydantoin-containing melanin-concentrating hormone receptor antagonists” (Bioorg Med Chem Lett, 2007).
Active and inactive are the calls of the source. No cut-off for these calls is given here.

How the values were obtained:
[1] = biological target: Melanin-concentrating hormone receptor 1 (Homo sapiens, UniProt Q99705); assay: Displacement of [125I][Phe13, Tyr19]MCH from human recombinant MCHR1 expressed in CHO cells; type: cell-based
[2] = Binding affinity to L-verapamil site of calcium channel; parameters: species or system Homo sapiens
[3] = biological target: 5-hydroxytryptamine receptor 2A (Homo sapiens, UniProt P28223); assay: Binding affinity to 5HT2A receptor
[4] = Permeability across human Caco-2 cell membrane; type: ADME, cell-based; details: read-out: permeability
[5] = system: Mus musculus; assay: Antidepressant effect in mouse at 30 mg/kg, ip assessed as reduction in immobility duration after 30 mins by forced swimming test relative to control; type: functional; parameters: scale not given: the % may be the effect or the level left; details: route intraperitoneal
[6] = biological target: T1, 5-hydroxytryptamine receptor 2C (Homo sapiens, UniProt P28335); assay: Binding affinity to 5HT2C receptor
T1 sequence (P28335 whole entry): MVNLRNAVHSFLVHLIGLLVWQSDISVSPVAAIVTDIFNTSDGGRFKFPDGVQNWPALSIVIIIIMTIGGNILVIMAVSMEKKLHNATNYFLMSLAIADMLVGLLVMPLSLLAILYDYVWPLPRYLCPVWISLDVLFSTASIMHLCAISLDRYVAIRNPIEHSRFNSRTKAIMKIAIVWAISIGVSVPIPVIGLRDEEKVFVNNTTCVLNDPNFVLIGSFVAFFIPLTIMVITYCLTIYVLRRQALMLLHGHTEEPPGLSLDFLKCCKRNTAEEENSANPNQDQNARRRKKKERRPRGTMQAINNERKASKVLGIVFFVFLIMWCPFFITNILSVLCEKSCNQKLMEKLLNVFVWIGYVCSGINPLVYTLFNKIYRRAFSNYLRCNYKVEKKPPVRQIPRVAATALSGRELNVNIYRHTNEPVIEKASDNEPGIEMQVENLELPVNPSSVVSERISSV

[7] = biological target: hERG (KCNH2) (Homo sapiens, UniProt Q12809); assay: Inhibition of hERG-mediated current amplitude at 1 uM; type: toxicity
[8] = system: Mus musculus; assay: Reduction of cumulative food intake in over-night fasted mouse at 30 mg/kg, ip after 3 hrs relative to control; type: functional; parameters: scale not given: the % may be the effect or the level left; details: route intraperitoneal
[9] = system: Mus musculus; assay: Toxicity in mouse at 10 to 100 mg/kg, ip by Irwins method; type: organism-based; parameters: dose 10-100 mg/kg, route intraperitoneal; details: in vivo
[10] = biological target: Melanin-concentrating hormone receptor 2 (Homo sapiens, UniProt Q969V1); assay: Binding affinity to MCHR2
[11] = biological target: Muscarinic acetylcholine receptor M4 (Homo sapiens) (UniProt P08173); assay: Binding affinity to muscarinic M4 receptor
[12] = system: Mus musculus; assay: Reduction of cumulative food intake in over-night fasted mouse at 10 mg/kg, ip after 3 hrs relative to control; type: functional, organism-based; parameters: dose 10 mg/kg
[13] = system: Mus musculus; assay: Antidepressant effect in mouse at 10 mg/kg, ip assessed as reduction in immobility duration after 30 mins by forced swimming test relative to control; type: functional; parameters: scale not given: the % may be the effect or the level left; details: route intraperitoneal

Melanin-concentrating hormone receptor 1, sequence (Q99705 whole entry): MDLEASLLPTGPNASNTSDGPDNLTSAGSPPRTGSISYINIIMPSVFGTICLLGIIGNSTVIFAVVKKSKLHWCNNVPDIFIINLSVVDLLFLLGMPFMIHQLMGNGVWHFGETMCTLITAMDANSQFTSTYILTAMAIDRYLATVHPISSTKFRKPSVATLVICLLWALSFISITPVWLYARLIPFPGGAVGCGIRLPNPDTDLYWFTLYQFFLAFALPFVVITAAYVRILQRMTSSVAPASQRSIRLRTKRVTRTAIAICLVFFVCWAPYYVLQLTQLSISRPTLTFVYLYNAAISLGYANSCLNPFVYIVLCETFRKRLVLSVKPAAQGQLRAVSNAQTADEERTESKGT
5-hydroxytryptamine receptor 2A, sequence (P28223 whole entry): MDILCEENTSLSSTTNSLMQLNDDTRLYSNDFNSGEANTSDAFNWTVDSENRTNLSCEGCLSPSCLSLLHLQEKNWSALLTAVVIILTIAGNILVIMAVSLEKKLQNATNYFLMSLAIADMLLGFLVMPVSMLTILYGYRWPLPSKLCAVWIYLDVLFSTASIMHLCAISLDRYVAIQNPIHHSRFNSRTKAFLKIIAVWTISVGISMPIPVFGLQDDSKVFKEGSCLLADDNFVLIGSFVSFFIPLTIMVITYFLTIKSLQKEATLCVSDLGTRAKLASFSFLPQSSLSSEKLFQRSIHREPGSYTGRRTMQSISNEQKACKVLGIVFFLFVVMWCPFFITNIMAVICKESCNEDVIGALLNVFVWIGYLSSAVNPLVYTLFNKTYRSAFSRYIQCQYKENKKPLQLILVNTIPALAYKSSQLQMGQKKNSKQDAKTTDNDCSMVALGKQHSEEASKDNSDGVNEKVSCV
Melanin-concentrating hormone receptor 2, sequence (Q969V1 whole entry): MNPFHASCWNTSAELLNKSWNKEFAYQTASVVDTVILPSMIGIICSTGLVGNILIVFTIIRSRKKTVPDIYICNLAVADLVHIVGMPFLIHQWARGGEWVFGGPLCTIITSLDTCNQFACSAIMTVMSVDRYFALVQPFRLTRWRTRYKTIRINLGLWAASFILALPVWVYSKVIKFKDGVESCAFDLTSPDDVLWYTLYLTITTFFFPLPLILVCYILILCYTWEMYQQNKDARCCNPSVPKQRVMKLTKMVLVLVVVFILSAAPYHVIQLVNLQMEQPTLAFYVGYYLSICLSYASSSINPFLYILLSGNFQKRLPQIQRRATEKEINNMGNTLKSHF
hERG (KCNH2), sequence (Q12809 whole entry): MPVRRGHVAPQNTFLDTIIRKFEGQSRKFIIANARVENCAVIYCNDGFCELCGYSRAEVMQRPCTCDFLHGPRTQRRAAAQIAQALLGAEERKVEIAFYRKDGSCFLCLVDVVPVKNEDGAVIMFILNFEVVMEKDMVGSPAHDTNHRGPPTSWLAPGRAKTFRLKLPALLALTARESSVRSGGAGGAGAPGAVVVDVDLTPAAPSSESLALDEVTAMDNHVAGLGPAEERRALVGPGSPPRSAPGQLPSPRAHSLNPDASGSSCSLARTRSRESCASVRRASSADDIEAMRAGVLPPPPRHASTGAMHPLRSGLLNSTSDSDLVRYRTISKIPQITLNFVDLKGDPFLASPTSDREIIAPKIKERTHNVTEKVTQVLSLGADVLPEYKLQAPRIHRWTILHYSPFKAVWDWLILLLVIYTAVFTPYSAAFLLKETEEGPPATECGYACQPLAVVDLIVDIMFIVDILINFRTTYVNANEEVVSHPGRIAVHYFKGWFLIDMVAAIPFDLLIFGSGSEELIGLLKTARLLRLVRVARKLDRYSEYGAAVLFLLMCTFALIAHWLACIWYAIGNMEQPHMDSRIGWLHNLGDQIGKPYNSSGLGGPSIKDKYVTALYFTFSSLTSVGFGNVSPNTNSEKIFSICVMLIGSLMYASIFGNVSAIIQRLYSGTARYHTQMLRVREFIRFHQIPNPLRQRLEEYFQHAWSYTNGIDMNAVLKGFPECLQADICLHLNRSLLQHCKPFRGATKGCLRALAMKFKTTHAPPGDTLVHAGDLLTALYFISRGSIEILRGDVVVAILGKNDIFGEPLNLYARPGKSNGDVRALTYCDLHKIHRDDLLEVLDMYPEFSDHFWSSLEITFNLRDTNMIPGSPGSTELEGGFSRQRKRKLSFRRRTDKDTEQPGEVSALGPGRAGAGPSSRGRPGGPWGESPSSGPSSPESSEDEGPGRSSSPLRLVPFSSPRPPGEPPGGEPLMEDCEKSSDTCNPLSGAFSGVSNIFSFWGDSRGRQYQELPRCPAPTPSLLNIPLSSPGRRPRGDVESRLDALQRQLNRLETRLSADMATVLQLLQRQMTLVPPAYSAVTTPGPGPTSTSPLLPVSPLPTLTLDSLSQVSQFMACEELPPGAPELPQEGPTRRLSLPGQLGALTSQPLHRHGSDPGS

SMILES	Ki [1] [nM]	other results
COc1cc(NC(=O)Nc2ccc(-c3ccccc3)cc2)ccc1OCCN1CCCC1	260	–
COc1cc(NC(=S)Nc2ccc(Oc3ccccc3)cc2)ccc1OCCN1CCCC1	1090	–
COc1cc(NC(=O)c2ccc(Oc3ccccc3)cc2)ccc1OCCN1CCCC1	82	–
O=C1N/C(=C\c2ccc(CN3CCCCC3)cc2)C(=O)N1c1ccc(Oc2ccccc2)cc1	> 5000	–
CN(C)CCNCc1ccc(/C=C2\NC(=O)N(c3ccc(Oc4ccccc4)cc3)C2=O)cc1	707	–
O=C1N/C(=C\c2ccc(CN3CCCCCC3)cc2)C(=O)N1c1ccc(Oc2ccccc2)cc1	357	–
O=C1N/C(=C\c2ccc(CN3CCCC3)cc2)C(=O)N1c1ccc(Oc2ccccc2)cc1	220	Ki [2]: 330 nM; Ki [3]: > 5000 nM; Papp [4]: > 6 ×10⁻⁶ cm/s; Activity [5]: -57%; Ki [6]: > 10000 nM; inhibition at 1 µM [7]: 73%; Activity [8]: 41%; Activity [9]: Non-toxic; Ki [10]: > 10000 nM
COc1cc(N2CC(=O)N(c3ccc(Oc4ccccc4)cc3)C2=O)ccc1OCCN1CCCC1	164	Ki [3]: 330 nM; Ki [6]: 880 nM; Ki [11]: 370 nM; Activity [8]: 51%
COc1cc(Nc2nc(-c3ccc(Oc4ccccc4)cc3)cs2)ccc1OCCN1CCCC1	1000	–
CC(C)CC(N(C)C)C1(c2ccc(Cl)cc2)CCC1 (centres undefined)	–	Activity [12]: Active
COc1cc(N2C(=O)CN(c3ccc(-c4ccccc4)cc3)C2=O)ccc1OCCN1CCCC1	> 5000	–
COc1cc(N2CC(=O)N(c3ccc(-c4ccccc4)cc3)C2=O)ccc1OCCN1CCCC1	415	–
O=C1N/C(=C\c2ccc(CNCc3ccccc3)cc2)C(=O)N1c1ccc(Oc2ccccc2)cc1	> 5000	–
O=C1N/C(=C\c2ccc(CN3CCOCC3)cc2)C(=O)N1c1ccc(Oc2ccccc2)cc1	> 5000	–
O=C1N/C(=C\c2ccc(CN3CCC(O)C3)cc2)C(=O)N1c1ccc(Oc2ccccc2)cc1 (racemic)	176	Activity [8]: 47%
CN(C)CCCN1c2ccccc2CCc2ccccc21 [IMIPRAMINE]	–	Activity [13]: -58%
CC(=O)N1CCN(Cc2ccc(/C=C3\NC(=O)N(c4ccc(Oc5ccccc5)cc4)C3=O)cc2)CC1	2060	–
CN(C)Cc1ccc(/C=C2\NC(=O)N(c3ccc(Oc4ccccc4)cc3)C2=O)cc1	341	–
COc1cc(N2C(=O)CN(c3ccc(Oc4ccccc4)cc3)C2=O)ccc1OCCN1CCCC1	365	–
COc1cc(NC(=O)Nc2ccc(Oc3ccccc3)cc2)ccc1OCCN1CCCC1	101	–
O=C1N/C(=C\c2ccc(CNC3CCCC3)cc2)C(=O)N1c1ccc(Oc2ccccc2)cc1	> 5000	–
O=C1N/C(=C\c2ccc(CN3CCN(Cc4ccccc4)CC3)cc2)C(=O)N1c1ccc(Oc2ccccc2)cc1	> 5000	–
O=C1N/C(=C\c2ccc(CN3CCN(c4ccccc4)CC3)cc2)C(=O)N1c1ccc(Oc2ccccc2)cc1	> 5000	–
COc1cc(NC(=O)c2ccc(-c3ccccc3)cc2)ccc1OCCN1CCCC1	25	–
CN(C)CC1CCc2cc(NC(=O)c3ccc(-c4ccc(F)cc4)cc3)ccc2C1 (centres undefined)	38	–
